Data published in the NIST ThermoML archive (doi:10.1016/j.tca.2012.05.025).

Assay: xn = mol fraction of the nth substance listed
Conditions: for surface tension liquid-gas: roughened platinum plate-detachment; for viscosity / mass density: 101 kPa, Liquid; for viscosity: Capillary tube (Ostwald / Ubbelohde) method; for mass density: Vibrating tube method

CN(C)CCCO [3-dimethylamino-1-propanol] + O
Conditions	mass density [kg/m3]	surface tension liquid-gas [mN/m]	viscosity [mPa·s]
298.15 K, x1 = 0.0979	–	36.93	–
298.15 K, x1 = 0.1002	978.93	–	6.617
298.15 K, x1 = 0.1971	–	35.21	–
298.15 K, x1 = 0.201	960.36	–	14
298.15 K, x1 = 0.2927	–	33.39	–
298.15 K, x1 = 0.297	943.21	–	19.6
298.15 K, x1 = 0.3979	–	32.02	–
298.15 K, x1 = 0.4001	929.16	–	20.8
298.15 K, x1 = 0.4996	–	31.04	–
298.15 K, x1 = 0.5013	917.07	–	19.5
298.15 K, x1 = 0.5975	–	30.56	–
298.15 K, x1 = 0.6019	907.19	–	15.1
298.15 K, x1 = 0.6939	899.28	–	12.3
298.15 K, x1 = 0.6998	–	29.87	–
298.15 K, x1 = 0.7946	–	29.33	–
298.15 K, x1 = 0.8006	891.51	–	9.402
298.15 K, x1 = 0.8989	885.51	–	7.474
298.15 K, x1 = 0.8997	–	28.22	–
298.15 K, x1 = 1	880.25	29.01	5.839
303.15 K, x1 = 0.0979	–	34.56	–
303.15 K, x1 = 0.1002	975.53	–	5.319
303.15 K, x1 = 0.1971	–	34.17	–
303.15 K, x1 = 0.201	956.53	–	10.8
303.15 K, x1 = 0.2927	–	31.4	–
303.15 K, x1 = 0.297	939.37	–	14.4
303.15 K, x1 = 0.3979	–	31.61	–
303.15 K, x1 = 0.4001	925.16	–	15.9
303.15 K, x1 = 0.4996	–	30.59	–
303.15 K, x1 = 0.5013	913.1	–	15.6
303.15 K, x1 = 0.5975	–	29.91	–
303.15 K, x1 = 0.6019	903.25	–	11.9
303.15 K, x1 = 0.6939	895.35	–	9.94
303.15 K, x1 = 0.6998	–	29.34	–
303.15 K, x1 = 0.7946	–	28.87	–
303.15 K, x1 = 0.8006	887.57	–	7.954
303.15 K, x1 = 0.8989	881.52	–	6.226
303.15 K, x1 = 0.8997	–	27.64	–
303.15 K, x1 = 1	876.46	29.28	4.963
308.15 K, x1 = 0.0979	–	32.51	–
308.15 K, x1 = 0.1971	–	32.13	–
308.15 K, x1 = 0.2927	–	30.61	–
308.15 K, x1 = 0.3979	–	30.51	–
308.15 K, x1 = 0.4996	–	30.2	–
308.15 K, x1 = 0.5975	–	29.3	–
308.15 K, x1 = 0.6998	–	28.72	–
308.15 K, x1 = 0.7946	–	28.45	–
308.15 K, x1 = 0.8997	–	26.42	–
308.15 K, x1 = 1	–	28.88	–
313.15 K, x1 = 0.0979	–	32.02	–
313.15 K, x1 = 0.1002	968.53	–	3.808
313.15 K, x1 = 0.1971	–	31.26	–
313.15 K, x1 = 0.201	948.48	–	7.433
313.15 K, x1 = 0.2927	–	29.79	–
313.15 K, x1 = 0.297	931.17	–	10.2
313.15 K, x1 = 0.3979	–	30.12	–
313.15 K, x1 = 0.4001	916.99	–	11
313.15 K, x1 = 0.4996	–	29.33	–
313.15 K, x1 = 0.5013	905.01	–	10.7
313.15 K, x1 = 0.5975	–	28.76	–
313.15 K, x1 = 0.6019	895.21	–	8.899
313.15 K, x1 = 0.6939	887.38	–	7.649
313.15 K, x1 = 0.6998	–	28.23	–
313.15 K, x1 = 0.7946	–	27.82	–
313.15 K, x1 = 0.8006	879.6	–	6.319
313.15 K, x1 = 0.8989	873.52	–	5.192
313.15 K, x1 = 0.8997	–	26.23	–
313.15 K, x1 = 1	868.42	28.47	4.266
318.15 K, x1 = 0.0979	–	30.72	–
318.15 K, x1 = 0.1971	–	29.83	–
318.15 K, x1 = 0.2927	–	28.55	–
318.15 K, x1 = 0.3979	–	29.78	–
318.15 K, x1 = 0.4996	–	28.69	–
318.15 K, x1 = 0.5975	–	28.51	–
318.15 K, x1 = 0.6998	–	27.87	–
318.15 K, x1 = 0.7946	–	27.54	–
318.15 K, x1 = 0.8997	–	25.6	–
318.15 K, x1 = 1	–	28.13	–
323.15 K, x1 = 0.0979	–	28.2	–
323.15 K, x1 = 0.1002	961.28	–	2.743
323.15 K, x1 = 0.1971	–	29.54	–
323.15 K, x1 = 0.201	940.25	–	4.975
323.15 K, x1 = 0.2927	–	28.28	–
323.15 K, x1 = 0.297	922.77	–	6.606
323.15 K, x1 = 0.3979	–	28.91	–
323.15 K, x1 = 0.4001	908.62	–	7.162
323.15 K, x1 = 0.4996	–	28.65	–
323.15 K, x1 = 0.5013	896.72	–	7.031
323.15 K, x1 = 0.5975	–	27.57	–
323.15 K, x1 = 0.6019	887.02	–	6.036
323.15 K, x1 = 0.6939	879.25	–	5.28
323.15 K, x1 = 0.6998	–	27.36	–
323.15 K, x1 = 0.7946	–	27.1	–
323.15 K, x1 = 0.8006	871.47	–	4.526
323.15 K, x1 = 0.8989	865.41	–	3.848
323.15 K, x1 = 0.8997	–	25.43	–
323.15 K, x1 = 1	860.29	27.63	3.253
333.15 K, x1 = 0.0979	–	26.75	–
333.15 K, x1 = 0.1002	953.71	–	2.169
333.15 K, x1 = 0.1971	–	28.32	–
333.15 K, x1 = 0.201	931.78	–	3.514
333.15 K, x1 = 0.2927	–	27.56	–
333.15 K, x1 = 0.297	914.15	–	4.536
333.15 K, x1 = 0.3979	–	27.91	–
333.15 K, x1 = 0.4001	900.04	–	4.707
333.15 K, x1 = 0.4996	–	27.54	–
333.15 K, x1 = 0.5013	888.25	–	4.797
333.15 K, x1 = 0.5975	–	26.74	–
333.15 K, x1 = 0.6019	878.64	–	4.286
333.15 K, x1 = 0.6939	870.93	–	3.831
333.15 K, x1 = 0.6998	–	26.36	–
333.15 K, x1 = 0.7946	–	26.32	–
333.15 K, x1 = 0.8006	863.22	–	3.369
333.15 K, x1 = 0.8989	857.19	–	2.94
333.15 K, x1 = 0.8997	–	24.76	–
333.15 K, x1 = 1	852.1	26.81	2.768
343.15 K, x1 = 0.1002	945.85	–	1.686
343.15 K, x1 = 0.201	923.1	–	2.575
343.15 K, x1 = 0.297	905.31	–	3.262
343.15 K, x1 = 0.4001	891.27	–	3.498
343.15 K, x1 = 0.5013	879.56	–	3.428
343.15 K, x1 = 0.6019	870.06	–	3.147
343.15 K, x1 = 0.6939	862.44	–	2.861
343.15 K, x1 = 0.8006	854.81	–	2.579
343.15 K, x1 = 0.8989	848.84	–	2.322
343.15 K, x1 = 1	843.77	–	2.03
